Results reported in US8067445B2, “N,N-disubstituted aminoalkylbiphenyl antagonists of prostaglandin D2 receptors” (Panmira Pharmaceuticals, LLC, priority 2008, dated 2011).
pIC50: −log10 of the molar value.

Target: T1, human DP2 receptor (Homo sapiens, UniProt Q9Y5Y4)
T1 construct: expressed in transfected cells
T1 sequence (Q9Y5Y4 1-395): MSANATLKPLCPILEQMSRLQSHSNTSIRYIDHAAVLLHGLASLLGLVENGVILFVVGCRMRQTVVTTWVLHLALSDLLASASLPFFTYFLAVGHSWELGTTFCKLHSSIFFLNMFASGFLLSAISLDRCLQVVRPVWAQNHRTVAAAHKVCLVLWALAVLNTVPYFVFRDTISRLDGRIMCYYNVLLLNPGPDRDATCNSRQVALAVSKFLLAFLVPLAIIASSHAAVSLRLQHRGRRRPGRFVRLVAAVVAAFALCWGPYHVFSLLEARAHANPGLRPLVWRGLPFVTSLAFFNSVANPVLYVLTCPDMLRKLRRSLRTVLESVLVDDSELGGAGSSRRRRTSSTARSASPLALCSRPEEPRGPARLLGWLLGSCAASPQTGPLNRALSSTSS
Test: DP2/CRTH2 radioligand binding assay ([3H]PGD2)
Conditions: [3H]PGD2 binding, membranes of HEK293 cells expressing human DP2; read-out: hDP2
Experimental: The ability of a compound to bind to the human DP2 receptor is assessed via a radioligand binding assay using [^3H]PGD2. HEK293 cells stably expressing recombinant human DP2 are resuspended in 10 mM Hepes, 7.4 containing 1 mM DTT, lysed and centrifuged at 75,000×g to pellet the membranes. The membranes are resuspended in 10 mM Hepes, 7.4 containing 1 mM DTT and 10% glycerol to approximately 5 mg protein/ml. Membranes (2-10 μg protein/well) are incubated in 96-well plates with 1 nM [^3H]PGD2 and test compound in Assay Buffer (50 mM Hepes, 10 mM MnCl2, 1 mM EDTA, plus or minus 0.2% human serum albumin, pH 7.4) for 60 minutes at room temperature. The reactions are terminated by rapid filtration through Whatman GF/C glass fibre filter plates. The filter plates were pre-soaked in 0.33% polyethylenimine for 30 minutes at room temperature then washed in Wash Buffer (50 mM Hepes, 0.5 M NaCl pH 7.4) prior to harvesting. After harvesting, the filter plates are washed 3 times with 1 ml cold Wash Buffer then dried. Scintillant is then added to the plates and the radioactivity retained on the filters is determined on a Packard TopCount (Perkin Elmer). Specific binding is determined as total radioactive binding minus non-specific binding in the presence of 10 μM PGD2. IC50s were determined using GraphPad prism analysis of drug titration curves.

Row | SMILES | pIC50
1 | CCOc1ccc(-c2ccc(-c3cc(CC(=O)O)ccc3OC)c(CN(CC)C(=O)COc3ccc(Cl)cc3)c2)cn1 [Compound 1-229, [2′-({[2-(4-Chloro-phenoxy)-acetyl]-ethyl-amino}-methyl)-4′-(6-ethoxy-pyridin-3-yl)-6-methoxy-biphenyl-3-yl]-acetic acid] | > 6.52
2 | CCN(Cc1cc(C(F)(F)F)ccc1-c1cc(CC(=O)O)ccc1OC)C(=O)c1ccccc1 [Compound 1-80, {2′-[(Benzoyl-ethyl-amino)-methyl]-6-methoxy-4′-trifluoromethyl-biphenyl-3-yl}-acetic acid] | > 6.52
3 | CCN(Cc1cc(C(F)(F)F)ccc1-c1cc(CC(=O)O)cc(C(F)(F)F)c1)C(=O)c1ccccc1 [Compound 1-204, {2′-[(Benzoyl-ethyl-amino)-methyl]-5,4′-bis-trifluoromethyl-biphenyl-3-yl}-acetic acid] | > 6.52
4 | CCN(Cc1cc(C(F)(F)F)ccc1-c1cc(CC(=O)O)cc(C(F)(F)F)c1)C(=O)NC [Compound 1-202, [2′-(1-Ethyl-3-methyl-ureidomethyl)-5,4′-bis-trifluoromethyl-biphenyl-3-yl]-acetic acid] | > 6.52
5 | CCN(Cc1cc(C(F)(F)F)ccc1-c1cc([C@H](C)C(=O)O)ccc1OC)C(=O)C1CC1 [Compound 1-225, (S)-2-{2′-[(Cyclopropanecarbonyl-ethyl-amino)-methyl]-6-methoxy-4′-trifluoromethyl-biphenyl-3-yl}-propionic acid] | 4.52 to 6.00
6 | CCN(Cc1cc(C(F)(F)F)ccc1-c1cc(CC(=O)O)ccc1OC)C(=O)CCc1ccccc1 [Compound 1-208, (2′-{[Ethyl-(3-phenyl-propionyl)-amino]-methyl}-6-methoxy-4′-trifluoromethyl-biphenyl-3-yl)-acetic acid] | > 6.52
7 | CCN(Cc1ccc(OC)cc1-c1cc(Cl)cc(CC(=O)O)c1)C(=O)COc1ccc(Cl)cc1 [Compound 1-221, [5-Chloro-2′-({[2-(4-chloro-phenoxy)-acetyl]-ethyl-amino}-methyl)-5′-methoxy-biphenyl-3-yl]-acetic acid] | > 6.52
8 | CCN(Cc1cc(C(F)(F)F)ccc1-c1cc(CC(=O)O)ccc1OC)C(=O)NCc1ccncc1 [Compound 1-199, [2′-(1-Ethyl-3-pyridin-4-ylmethyl-ureidomethyl)-6-methoxy-4′-trifluoromethyl-biphenyl-3-yl]-acetic acid] | > 6.52
9 | CCN(Cc1cc(C(F)(F)F)ccc1-c1cc(CC(=O)O)cc(C(F)(F)F)c1)C(=O)OCc1ccc(F)cc1 [Compound 1-191, (2′-{[Ethyl-(4-fluoro-benzyloxycarbonyl)-amino]-methyl}-5,4′-bis-trifluoromethyl-biphenyl-3-yl)-acetic acid] | > 6.52
10 | CCN(Cc1cc(C(F)(F)F)ccc1-c1cc(Cl)cc(C(C)C(=O)O)c1)C(C)=O (stereo not drawn) [Compound 1-211, 2-{2′-[(Acetyl-ethyl-amino)-methyl]-5-chloro-4′-trifluoromethyl-biphenyl-3-yl}-propionic acid] | > 6.52
11 | CCN(Cc1ccc(OC)cc1-c1cc(CC(=O)O)ccc1OC)C(=O)C1CC1 [Compound 1-196, {2′-[(Cyclopropanecarbonyl-ethyl-amino)-methyl]-6,5′-dimethoxy-biphenyl-3-yl}-acetic acid] | > 6.52
12 | CCN(Cc1cc(C(F)(F)F)ccc1-c1cc(Cl)cc(C(C)C(=O)O)c1)C(=O)NCc1ccccc1 (stereo not drawn) [Compound 1-223, 2-[2′-(3-Benzyl-1-ethyl-ureidomethyl)-5-chloro-4′-trifluoromethyl-biphenyl-3-yl]-propionic acid] | > 6.52
13 | CCN(Cc1cc(C(F)(F)F)ccc1-c1cc(Cl)cc(CC(=O)O)c1)C(=O)OCc1ccc(F)cc1 [Compound 1-190, (5-Chloro-2′-{[ethyl-(4-fluoro-benzyloxycarbonyl)-amino]-methyl}-4′-trifluoromethyl-biphenyl-3-yl)-acetic acid] | > 6.52
14 | CCN(Cc1cc(C(F)(F)F)ccc1-c1cc(Cl)cc(CC(=O)O)c1)C(=O)OCc1ccc(Cl)cc1 [Compound 1-188, (5-Chloro-2′-{[(4-chloro-benzyloxycarbonyl)-ethyl-amino]-methyl}-4′-trifluoromethyl-biphenyl-3-yl)-acetic acid] | > 6.52
15 | CCN(Cc1ccc(OC)cc1-c1cc(Cl)cc(CC(=O)O)c1)C(=O)C1CC1 [Compound 1-218, {5-Chloro-2′-[(cyclopropanecarbonyl-ethyl-amino)-methyl]-5′-methoxy-biphenyl-3-yl}-acetic acid] | > 6.52
16 | CCN(Cc1cc(C(F)(F)F)ccc1-c1cc(Cl)cc(C(C)C(=O)O)c1)C(=O)C1CC1 (stereo not drawn) [Compound 1-212, 2-{5-Chloro-2′-[(cyclopropanecarbonyl-ethyl-amino)-methyl]-4′-trifluoromethyl-biphenyl-3-yl}-propionic acid] | > 6.52
17 | CCN(Cc1cc(C(F)(F)F)ccc1-c1cc(C(C)C(=O)O)cc(C(F)(F)F)c1)C(=O)C1CC1 (stereo not drawn) [Compound 1-214, 2-{2′-[(Cyclopropanecarbonyl-ethyl-amino)-methyl]-5,4′-bis-trifluoromethyl-biphenyl-3-yl}-propionic acid] | > 6.52

The next lines start with the values.

Row | pIC50 | SMILES
18 | 4.52 to 6.00 | CCN(Cc1cc(C(F)(F)F)ccc1-c1cc([C@H](C)C(=O)N2C(=O)O[C@@H](c3ccccc3)[C@H]2C)ccc1OC)C(=O)C1CC1 [Compound 2-13, Cyclopropanecarboxylic acid ethyl-{2′-methoxy-5′-[(S)-1-methyl-2-((4R,5S)-4-methyl-2-oxo-5-phenyl-oxazolidin-3-yl)-2-oxo-ethyl]-4-trifluoromethyl-biphenyl-2-ylmethyl}-amide]
19 | > 6.52 | CCN(Cc1cc(-c2ccc3ncccc3c2)ccc1-c1cc(CC(=O)O)ccc1OC)C(=O)C1CC1 [Compound 1-230, {2′-[(Cyclopropanecarbonyl-ethyl-amino)-methyl]-6-methoxy-4′-quinolin-6-yl-biphenyl-3-yl}-acetic acid]
20 | > 6.52 | CCN(Cc1cc(-c2ccc3ncccc3c2)ccc1-c1cc(CC(=O)O)ccc1OC)C(=O)NCc1ccccc1 [Compound 1-231, [2′-(3-Benzyl-1-ethyl-ureidomethyl)-6-methoxy-4′-quinolin-6-yl-biphenyl-3-yl]-acetic acid]
21 | 4.52 to 6.00 | CCN(Cc1cc(C(F)(F)F)ccc1-c1cc([C@@H](C)C(=O)N2C(=O)O[C@@H](c3ccccc3)[C@H]2C)cc(C(F)(F)F)c1)C(=O)C1CC1 [Compound 2-15, Cyclopropanecarboxylic acid ethyl-{3′-[(R)-1-methyl-2-((4R,5S)-4-methyl-2-oxo-5-phenyl-oxazolidin-3-yl)-2-oxo-ethyl]-4,5′-bis-trifluoromethyl-biphenyl-2-ylmethyl}-amide]
22 | > 6.52 | CCOc1ccc(-c2ccc(-c3cc(CC(=O)O)ccc3OC)c(CN(CC)C(=O)c3ccccc3)c2)cn1 [Compound 1-254, [2′-[(Benzoyl-ethyl-amino)-methyl]-4′-(6-ethoxy-pyridin-3-yl)-6-methoxy-biphenyl-3-yl]-acetic acid]
23 | < 4.52 | CCN(Cc1cc(C(F)(F)F)ccc1-c1cc([C@@H](C)C(=O)N[C@H](C)Cc2ccccc2)cc(C(F)(F)F)c1)C(=O)NCc1ccccc1 [Compound 2-10, (R)-2-[2′-(3-Benzyl-1-ethyl-ureidomethyl)-5,4′-bis-trifluoromethyl-biphenyl-3-yl]-N—((R)-1-methyl-2-phenyl-ethyl)-propionamide]
24 | > 6.52 | CCN(Cc1cc(-c2ncc(OC)cn2)ccc1-c1cc(CC(=O)O)ccc1OC)C(=O)C1CC1 [Compound 1-250, [2′-[(Cyclopropanecarbonyl-ethyl-amino)-methyl]-6-methoxy-4′-(5-methoxy-pyrimidin-2-yl)-biphenyl-3-yl]-acetic acid]
25 | 4.52 to 6.00 | CCOC(=O)Cc1ccc(OC)c(-c2ccc(C(=O)O)cc2CN(CC)C(=O)OCc2ccccc2)c1 [Compound 2-14, 2-[(Benzyloxycarbonyl-ethyl-amino)-methyl]-5′-ethoxycarbonylmethyl-2′-methoxy-biphenyl-4-carboxylic acid]
26 | 4.52 to 6.00 | CCN(Cc1cc(C(F)(F)F)ccc1-c1cc([C@H](C)C(=O)N2C(=O)O[C@@H](c3ccccc3)[C@H]2C)cc(C(F)(F)F)c1)C(=O)C1CC1 [Compound 2-16, Cyclopropanecarboxylic acid ethyl-{3′-[(S)-1-methyl-2((4R,5S)-4-methyl-2-oxo-5-phenyl-oxazolidin-3-yl)-2-oxo-ethyl]-4,5′-bis-trifluoromethyl-biphenyl-2-ylmethyl}-amide]
27 | 6.00 to 6.52 | CCN(Cc1cc(C(F)(F)F)ccc1-c1cc(C(F)(F)F)cc(C(C)(C)C(=O)O)c1)C(=O)C1CC1 [Compound 1-236, 2-{2′-[(Cyclopropanecarbonyl-ethyl-amino)-methyl]-5,4′-bis-trifluoromethyl-biphenyl-3-yl}-2-methyl-propionic acid]
